From patent publication US20210261618A1 (TAIAN CITY QIHANG BIOTECHNOLOGY CO., priority 2018, published 2021)
Like-named read-outs stand apart in the source and are kept apart here. Where no end group is shown, it is not given here.

How the values were obtained:
[1] = system: transplanted tumor cells of human osteosarcoma MG63; settings: xenograft tumor after 4 weeks of administration; taxol group, each dose group of sp2
Description: 2. AnnexinV-FITC cell apoptosis (annexinV)
2) 50,000-100,000 resuspended cells was taken, and centrifuged at 1000 g for 5 min. The supernatant was discarded, and 195 μl of AnnexinV-FITC binding solution was added to gently resuspend the cells.
6) Immediately flow cytometry detection was performed, wherein AnnexinV-FITC was green fluorescence, and PI was red fluorescence.

[2] = Kunming mice
Description: (§1) 20 Kunming mice, healthy adults, half male and half male, weight 20 g±2%
(§2) 4) Route of administration: tail vein injection;
(§3) 5) Administration method: animal acute toxicity test with a single dose was to study the toxic reaction of the animal within a certain period of time after the animal was given the test substance once or multiple times within 24 h. In this experiment, 3 doses within 24 h were used, namely 0.5 mL/each, 3 times/day, with an interval of 3 h;
(§4) 6) Observing and recording the reaction symptoms of the test animals for 14 consecutive days with twice a day on the day of administration and the next day, and then once a day;
(§5) 7) At the end of the experiment, the animals were killed by cervical dislocation. All the test animals were dissected to observe whether their tissues and organs were changed in volume, color, texture, etc. and recorded;

in vivo = settings: both, Kunming, mouse, iv, 2000 mg/kgBW
Description: as §1, §2, §3, §4, §5

[3] = 1 d after 2000 mg/kgBW tail vein
[4] = 3 d after 2000 mg/kgBW tail vein
[5] = 5 d after 2000 mg/kgBW tail vein
[6] = 7 d after 2000 mg/kgBW tail vein
[7] = 9 d after 2000 mg/kgBW tail vein
[8] = 11 d after 2000 mg/kgBW tail vein
[9] = 13 d after 2000 mg/kgBW tail vein

Row | Compound | tumor cell apoptosis compared to the model group [1] | animal weight, female (group value) [2, 3] | animal weight, male (group value) [2, 3] | animal weight, female (group value) [2, 4] | animal weight, male (group value) [2, 4] | animal weight, female (group value) [2, 5] | animal weight, male (group value) [2, 5] | animal weight, female (group value) [2, 6] | animal weight, male (group value) [2, 6] | animal weight, female (group value) [2, 7] | animal weight, male (group value) [2, 7] | animal weight, female (group value) [2, 8] | animal weight, male (group value) [2, 8] | animal weight, female (group value) [2, 9] | animal weight, male (group value) [2, 9] | maximum non-toxic dose administered intravenously ([2]; tail vein, observed 14 days) | NOAEL at 336 h (in vivo)
1 | CC(=O)O[C@H]1C(=O)[C@@]2(C)[C@H]([C@H](OC(=O)c3ccccc3)[C@]3(O)C[C@H](OC(=O)[C@H](O)[C@@H](NC(=O)c4ccccc4)c4ccccc4)C(C)=C1C3(C)C)[C@]1(OC(C)=O)CO[C@@H]1C[C@@H]2O [taxol] | increase the tumor cell apoptosis rate (P<0.05) |  |  |  |  |  |  |  |  |  |  |  |  |  |  |  | 
2 | RVLNGPEEEAAAPAE [sp2] |  | 26.458 | 27.565 | 28.245 | 31.131 | 29.135 | 33.177 | 30.603 | 35.699 | 31.884 | 37.611 | 33.355 | 38.017 | 33.25 | 38.456 | 2000 mg/kgBW | 2000 mg/kg
